One assay has as its system decorin. Briefly: Dot blot assay for decorin protein in dermal fibroblast conditioned medium. Format: cell-based, human. The following applies: for Decorin (% of control): fibroblasts, mean ± SD; for decorin levels in fibroblasts: single agent, in words. The protocol: Primary human foreskin fibroblasts at passage 2 (P2) were seeded into 12-well plates at 10000 cells/cm^2 and maintained for 24 hours in an atmosphere of 5% carbon dioxide and 4% oxygen in Dulbeccos Modified Eagles Medium (DMEM) supplemented with 10% foetal calf serum. After this time the cells were washed with serum free DMEM and then incubated in fresh serum free DMEM for a further 60 hours. The fibroblast monolayers were then washed again with serum free DMEM. […] This fibroblast conditioned medium was either analysed immediatedly or snap frozen in liquid nitrogen and stored at −70° C. for future analysis. The cells were then counted and data from the dot-blot analysis subsequently standardised to cell number.
Samples of conditioned medium from dermal fibroblasts treated with vehicle (as a control) or test reagents were supplemented with 20 mM dithiothreitol (1:10 dilution of 200 mM stock solution) and 0.1% sodium dodecylsulphate (1:100 dilution of 10% stock solution), mixed well and then incubated at 75° C. for 2 minutes. A standard for the assay was generated by serial dilution of neat fibroblast conditioned medium from fibroblasts seeded at 10000 cells/cm^2 in a 175 cm^2 flask and maintained in serum free DMEM as described above. Assay samples were subsequently applied in triplicate to a prewetted sheet of Immobilon-P transfer membrane using the 96-well Bio-Dot Apparatus from Bio-Rad as described in the manufacturers guidelines. Approximately 200 μl of medium was applied per well. The medium was allowed to filter through the membrane under gravity (30 minutes) after which the membrane was washed twice with PBS (200 μl). These PBS washes were allowed to filter through the membrane under gravity (2×15 minutes). The Bio-Dot apparatus was then attached to a vacuum manifold and a third and final PBS wash carried out under suction. The apparatus was disassembled, the membrane removed and quickly cut as required before being placed in blocking buffer overnight at 4° C. Membranes prepared for decorin analysis were blocked with 3% (w/v) bovine serum albumin (BSA)/ 0.1% (v/v) Tween 20 in phosphate buffered saline (PBS), whilst those for procollagen-I analysis were blocked with 5% (w/v) non fat dried milk powder/0.05% Tween 20 in PBS. The following day, the membranes were probed with 1:10000 dilution of primary antibodies to human decorin (rabbit polyclonal; Biogenesis) for 2 hours at room temperature. The membranes were subsequently washed with TBS/0.05% Tween 20 (3×5 minutes) and then incubated with 1:1000 dilution of ^125I-conjugated anti-rat or anti-rabbit F(ab′)2 fragments (Amersham) as required for 1 hour at room temperature. Following this the Immobilon strips were again washed with TBS/Tween 20 (3×5 minutes) before being allowed to dry in air at room temperature. The dried membranes were wrapped in cellophane and exposed to a Molecular Dynamics storage phosphor screen for 16-18 hours. At the end of this time the exposed screen was scanned by a phosphorimager (Molecular Dynamics Phosphorimager SF) using ImageQuant™ software. Dot intensity was assessed by computer-assisted image analysis using the quantification tools in ImageQuant™, standardised to cell number and the effects of various test reagents on decorin and procollagen-I synthesis were determined relative to a vehicle treated control value of 100 arbitrary units.

For assay [1], the system named is intracellular adhesion molecules (ICAM). Briefly: Glutathione (GSH) depletion model in fibroblasts (BSO and PMA), ICAM. Format: cell-based, human. The conditions noted are these: BSO and PMA treated fibroblasts, FIG. 3. The protocol: (§1) Primary human foreskin fibroblasts at passage 2 (P2) were seeded into 96-well plates at 10000 cells/well and maintained for 24 hours in an atmosphere of 5% carbon dioxide in Dulbeccos Modified Eagles Medium (DMEM) supplemented with 10% foetal calf serum. […] Phorbal myristate acetate (PMA) in ethanol/cell media ([…]) was added to the media and the cells incubated for a futher 24 hours. PMA represents an external stressor which induces oxidative stress and inflammatory responses in cells. The fibroblasts/media were then analysed as described below immediately or snap frozen in liquid nitrogen and stored at −70° C. for future analysis. The cells were then counted to ensure no effect on cell number.
Media were discarded and cells washed with Dulbecco PBS. To the washed cells, 150 μl 0.1% Triton X-100 (Sigma) was added for 3 minutes to extract ICAM from cell membrane. The extracts were transferred to Eppendoff centrifuge tubes and centrifuged at 1000 g for 2 min to remove cell debris. A volume of 100 μl supernatant was used for ICAM assay. The soluble ICAM-1 was assessed with commercially available immunoenzymometric assay kit (R&D Systems). Concentrations of ICAM-1 in the samples were determined based on parallelly running standard curve.
L-Buthionine sulfoximine (BSO, Sigma), a specific inhibitor of γ-glutamylcysteine synthetase, was used to deplete intracellular GSH levels. This depletion model is based on the natural degradation of GSH while synthesis is inhibited. BSO is added to the fibroblast cell media after 24 hours (0.25 mM), this is predissolved in DMSO (DMSO, final concentration <1%). In addition, where stated, the antioxidants Epigallocatechingallate (ECGC) and Quercetin were also added to the media after 24 h. The former was dissolved directly in the media, quercetin was initially dissolved in ethanol, this was then diluted 500 fold into the media.

Assay [2] shares this test system. Briefly: ICAM-1 assay in fibroblasts, basal and PMA-induced. It counts as cell-based, human. The following applies: FIG. 2. The protocol:
(§2) It is emphasized that the anti-inflammatory effects were determined by in vitro tests wherein the production of intracellular adhesion molecules (=ICAM) and Prostaglandin E2 (=PGE2) production by the human skin fibroblasts is measured after being induced by the inflammatory modulus phorbyl myristyl acetate (PMA). Effects on basal PGE2 levels in keratinocytes are also measured. A reduction of the levels of ICAM and PGE2 is indicative for the anti-inflammatory effect.
as §1, with “PMA represents an external stressor which induces oxidative stress and inflammatory responses in cells.” left out
Media were discarded and cells washed with Dulbecco PBS. […] The soluble ICAM-1 was assessed with commercially available immunoenzymometric assay kit (R&D Systems). Concentrations of ICAM-1 in the samples were determined based on parallelly running standard curve.

The test system of assay [3] is Prostaglandin E2 (PGE2) production. Briefly: PMA-induced PGE2 production, fibroblast cell assay. It counts as cell-based, human. The following applies: FIG. 1. The protocol:
as §2
Primary human foreskin fibroblasts at passage 2 (P2) were seeded into 96-well plates at 10000 cells/well and maintained for 24 hours in an atmosphere of 5% carbon dioxide in Dulbeccos Modified Eagles Medium (DMEM) supplemented with 10% foetal calf serum. […] The fibroblasts/media were then analysed as described below immediately or snap frozen in liquid nitrogen and stored at −70° C. for future analysis. The cells were then counted to ensure no effect on cell number.
Volumes of 50 μl culture medium were taken for PGE2 assay after gently shaking the culture plate. PGE2 levels in the medium were determined with a Biotrak PGE2 immunoassay kit (Amersham, UK). The assay is based on the competition between unlabelled PGE2 in the sample and a fixed quantity of horseradish peroxidase labelled PGE2 for a limited amount of fixed PGE2 specific antibody. […]

The test system of assay [4] is basal PGE2 levels in keratinocytes. The experiment in a line: Keratinocyte PGE2 assay. Format: cell-based. The conditions noted are these: 0.1 μM and 1 μM, 24 h. The text has this: The medium was then removed and assayed for the pro-inflammatory PGE2 content by Enzyme-linked immunoassay.

Molecules are shown by their SMILES. Entries after “also recorded” stand apart in the source; their conditions may differ.

In the case of `O=C(O)c1cc(O)c(O)c(O)c1` [Gallic acid], the “Decorin (% of control)” value with decorin (1 μg / ml) is given as 136.9 ± 4.2 % of control; in the assay with decorin (2.5 μg / ml), 163.4 ± 6.5 % of control; in the assay on decorin (5 μg / ml), 161.8 ± 6.6 % of control. The “decorin levels in fibroblasts” value in the assay on decorin is given as “can also exert this effect”.

For the compound `O=c1c(O)c(-c2ccc(O)c(O)c2)oc2cc(O)cc(O)c12` [Quercetin], the ICAM response result in assay [1] (antioxidant alone 10 μM) is “decrease the ICAM response”.

On to `O=C(O[C@@H]1Cc2c(O)cc(O)cc2O[C@@H]1c1cc(O)c(O)c(O)c1)c1cc(O)c(O)c(O)c1` [EGCG, Epigallocatechingallate], for which the ICAM response entry in assay [1] (antioxidant alone 10 μM) is recorded as “decrease the ICAM response”. The “Decorin (% of control)” value is reported as 167.5 ± 11.8 % of control in the assay with decorin (1 μg / ml), 188.6 ± 9.4 % of control with decorin (2.5 μg / ml) and 258.2 ± 6.1 % of control with decorin (5 μg / ml). In addition, in the assay on decorin, the “decorin levels in fibroblasts” value was “can also exert this effect”.

Consider `O=c1c(-c2ccc(O)cc2)coc2cc(O)ccc12` [diadzein], for which, in the assay with decorin, the “decorin levels in fibroblasts” value is recorded as “can also exert this effect”.

Turning to `O=c1c(-c2ccc(O)cc2)coc2cc(O)cc(O)c12` [genistein], the “decorin levels in fibroblasts” value in the assay with decorin is given as “can also exert this effect”.

Consider `CCCCCCCCCCC/C=C\CCCCC(=O)O` [Petroselinic acid], for which, in assay [2] (PMA-stimulated fibroblasts pre-incubated with 0.1, 1.0, 10 and 100 μM), the “production of ICAM / ICAM response” value is reported as “reduction in ICAM; also recorded: significant decrease”. For the same compound, in assay [2] (basal condition (control), fibroblasts, 100 μM), the “production of ICAM” value is “reduction in ICAM”. The PGE2 response entry in assay [3] (PMA treated cells pre-incubated with 0.1, 1.0, 10 and 100 μM) is “significant decrease”. In assay [3] (PMA-challenged fibroblasts, 0.1 μM), the “inflammatory response as measured by PGE2 production” value is “dramatically reduces”. For the same compound, the “basal levels of secreted PGE2” value in assay [4] (FIG. 5) is “significantly reduce”; in assay [4] (FIG. 5, listed as petroselinic acid) it was “reduced the basal levels”. Further, in assay [1] (petroselinic acid alone 0.01 μM), the ICAM response entry is listed as “no effect”. Besides, the “decorin levels in fibroblasts” value with decorin was “boost decorin levels”.
